# From patent US20010025028A1, “Methods of inhibiting bone resorption” (Merck & Co., Inc., priority 1998, published 2001)
# Experiments:
# bone marrow cultures = conditions: cited from earlier work
# [1] = tested on: co-culture of mouse bone marrow cells and MB 1.8 mouse osteoblasts; experiment: Osteoclastogenesis in murine co-cultures of bone marrow cells and MB 1.8 osteoblasts (TRAP fluorescence or counting of osteoclast-like cells); assay type: cell-based; conditions: FIG. 1
structure (smiles),measurement,setting,value
CC[C@H](C)C(=O)O[C@H]1CCC=C2C=C[C@H](C)[C@H](CC[C@@H]3C[C@@H](O)CC(=O)O3)[C@H]21 [mevastatin],inhibition of in vitro osteoclastogenesis formation,bone marrow cultures,inhibit in vitro osteoclastogenesis formation
"CC1(O)CCOC(=O)C1 (racemic) [D,L-mevalonic acid lactone]",reversal of lovastatin inhibition of osteoclastogenesis (TRAP fluorescence assay),"[1]; D,L-mevalonic acid lactone 1 mM together with 1 or 10 μM lovastatin, added at days 5 and 6, read on day 7",reversal
CC[C@H](C)C(=O)O[C@H]1C[C@@H](C)C=C2C=C[C@H](C)[C@H](CC[C@@H]3C[C@@H](O)CC(=O)O3)[C@H]21 [lovastatin],"inhibition of osteoclastogenesis (tartrate resistant acid phosphatase activity, percent activity relative to no treatment)","[1]; lovastatin 1 and 10 μM added at days 5 and 6, TRAP activity measured on day 7",inhibition of osteoclastogenesis
C[C@@](O)(CCO)CC(=O)O [mevalonic acid],effect of added mevalonic acid on the inhibition of osteoclastogenesis by mevastatin,bone marrow cultures; added to mevastatin,partially restored
